Entries after “also recorded” stand apart in the source; their conditions may differ.
Tests used:
[1] = system: CNE nasopharyngeal carcinoma cells; experiment: MTT cell viability assay, CNE; type: cell-based; conditions: HPV-negative, data not shown
From the text: (§1) HPV16-positive SiHa and CaSki cervical carcinoma cells were supplied by China Center for Type Culture Collection (CCTCC). The following cell lines used in this project were from our laboratory: HPV18-positive HeLa cervical carcinoma cells, CNE nasopharyngeal carcinoma cells, HaCat human keratinocyte cells, COS7 (African green monkey SV40-transformed kidney fibroblast cell line), 293T (human kidney epithelial cells), and NIH/3T3 mouse embryonic fibroblast cells. All cells were maintained in a humidified atmosphere of 5% CO2, Dulbecco's modified Eagle's medium (DMEM, pH 7.2), supplemented with 10% fetal calf serum (FCS).
(§2) Cell viability was determined with an MTT assay. Briefly, the cells were seeded into 96-well plates at a density of 4–5×10^3 cells/well. The cells were allowed to recover for 24 h before the medium was replaced with DMEM supplemented with peptides at different concentrations. The solvent of the peptides was set as the control. The peptide-supplemented medium was replaced daily and the respective concentrations were maintained. The cells were subjected to an MTT cell proliferation assay at different time points. The plates were incubated at 37°C for 3 h with the addition of 20 µl/well MTT (5 mg/ml). Untransformed MTT in the solution was removed by aspiration. […] The optical density of the formazan solutions was measured by microplate reader at 540 nm.

[2] = system: NIH/3T3 embryonic fibroblast cells; experiment: MTT cell viability assay, NIH 3T3; type: cell-based, mouse; conditions: NIH 3T3, HPV-negative; data not shown
From the text: as §1, §2

SiHa cells [3] = experiment: PI staining cell cycle analysis by flow cytometry; type: cell-based; conditions: for percentage of cells in S-phase: control 25.96%
Experimental: Cell cycle distribution was determined by flow cytometry DNA analysis. […] After 24 h, cells were harvested and counterstained with PI (Invitrogen, Carlsbad, CA, USA) for flow cytometry according to the manufacturer's instructions. Briefly, cells were trypsinized and resuspended in 1 ml PBS. Cell suspension was dropped slowly into 4 ml anhydrous ethanol pre-cooled at −20°C and mixed. After standing at −20°C for more than 15 min, the ethanol was removed by centrifugation, after which 5 ml PBS was added and mixed, and cells were re-hydrated at room temperature for 15 min. PBS was then removed by centrifugation. Cells were stained with 2 µg/ml propidium iodide in 1 ml dilution buffer (100 mmol/L Tris, pH 7.4, 150 mmol/L NaCl, 1 mmol/L CaCl2, 0.5 mmol/L MgCl2, 0.1% Nonidet P-40, 100 µg/ml RNAase) at room temperature for 15 min and subjected to flow cytometry analysis. Analysis was performed on an Epics-XL flow cytometer (Beckman Coulter, Inc. CA, USA) with Modfit 3.0 software (Verity Software House, Topsham, ME, USA).

SiHa cells [4] = experiment: Western blot, SiHa; type: cell-based; conditions: 80 µM
Experimental: Western blotting was carried out as described previously, [50]. […] After another 48 h of treatment, the cells were lysed in lysis buffer (Beyotime Institute of Biotechnology, Jiangshu, China) containing PMSF (Sigma Chemical Co., St. Louis, MI, USA) for 30 min at 4°C. The lysate was then centrifuged for 20 min at 13,000 rpm and 4°C. The proteins were then separated through SDS-PAGE and transferred onto the PVDF membrane (Immobion®-P Transfer Membrane, Millipore Corp., Billerica, MA, USA). Membranes were blocked in a Tris-buffered saline with 0.1% Tween-20 (TBS-T) solution with 5% nonfat dry milk and incubated overnight with primary antibodies at 4°C. The immunoreactive signals were detected by HRP-conjugated secondary antibodies (KPL, Gaithersburg, MD, USA) followed by SuperSignal® West Pico Chemiluminescent Substrate (Thermo Scientific, Milford, MA, USA.). Anti-β-actin antibodies were used to control protein loading. For the in vivo studies, tumors were harvested, and the cell lysates were prepared and transferred to a clean Eppendorf tube and centrifuged for 30 min at 14,000 rpm. The supernate was probed by western blotting, as described above.

pRb = pRb phosphorylation Western blot; type: cell-based; conditions: SiHa, 80 µM, 24 h
SiHa tumor xenografts = experiment: H/E staining and BrdU-incorporation of tumor tissues; type: in vivo, mouse (Balb/C-nu/nu); conditions: 400 µg/mouse group
Experimental: Three or two mice bearing tumor of each group were prelabeled with intra-peritoneal injection of BrdU (100 mg/kg, Sigma-Aldrich, Inc., Aaint Louis, MO, USA) 15 hours before sacrificed. Tumor specimens were then prepared as formalin-fixed, paraffin-embedded sections for hematoxylin-eosin staining, BrdU and pRb immunohistochemical staining as previously described, [57]. In brief, immunostaining was performed on formalin-fixed, paraffin-embedded sections using the anti-pRb monoclonal and anti- BrdU monoclonal antibodies, respectively. Before the application of the primary antibodies, an antigen retrieval technique was performed. […] The antibodies were detected by means of the Strept Avidin-Biotin Complex (SABC) method (Wuhan Boster Biological Technology, Ltd., Wuhan, P.R. China.) according to the manufacturer's instructions. Stained slides were examined under a Nikon ECLIPSE TE2000-U microscope (Nikon Corporation, Tokyo, Japan) and images were collected and analyzed with Pixera Penguin 600CL DiRactor™ (Pixera Corporation, Los Gatos, CA, USA). BrdU or pRb-positive cells were counted in each section. The total cell number was determined by nuclear staining with hematoxylin. At least 1000 total cells for each case were counted.

cyclins A, D1, and E1 = experiment: qRT-PCR of tumor tissues; type: in vivo, mouse (Balb/C-nu/nu)
Experimental: Total RNA was extracted from the cultured cells using TRIzol reagent (Invitrogen, Carlsbad, CA,USA) according to the manufacturer's instructions. qRT-PCR was used to confirm the expression levels of mRNAs. Reverse transcription and qPCR were performed according to the protocol of Reverse Transcriptase System™ and SYBR® premix Ex Taq™ (Perfect Real Time) (TaKaRa, Dalian, P.R. China) on the ABI 7300 Real Time PCR System (Applied Biosystems, Foster City, CA, USA) supplied with analytical software. β-actin mRNA levels were used for normalization. Each sample was determined in triplicate. The results represent means ± SE from three experiment runs.

## SACPKGLDWCGG (C&C bridged by disulfide bonds) (disulfide) [Pep-7]
[1]
  cell proliferation (MTT): negligible effect
[2]
  cell proliferation (MTT): negligible effect
SiHa cells [3]; 32 µM Pep-7, 24 h
  percentage of cells in S-phase: 14.75%
SiHa cells [3]; 80 µM Pep-7, 24 h
  percentage of cells in S-phase: 8.75%
SiHa cells [3]; 24 h, 32 and 80 µM, p<0.02
  G1-to-S phase transition: inhibited G1-to-S phase transition of SiHa cells significantly; also recorded: induced G1 arrest in SiHa cells
SiHa cells [4]; SiHa and CaSki (Fig. 4D)
  p107 and p130 protein levels: did not exhibit an effect
SiHa cells [4]; SiHa, 48 h
  HPV16E7 protein level: reduced
  cyclins A, D1 and E1 protein expression: significantly reduced
  pRb protein level: increased
pRb
  phosphorylation of pRb: not affected significantly
SiHa tumor xenografts
  H/E staining and BrdU uptake of tumor tissue: repressed tumor growth
Cyclins A, D1, and E1
  cyclins A, D1, and E1 RNA levels in tumor tissue: reduced
